Source: US20080269279A1, “Substituted furo[2,3-B] pyridine derivatives as cannabinoid-1 receptor modulators” (priority 2007, published 2008)
Where a name gives a salt, the structure may show the parent alone.

Tested on: human GABA α1β3β2 receptors
Experiment: GABAa, 3H-muscimol binding assay
Settings: activity at 10 μM as percentage of activity of control compound P18 at 10 μM (increase of 3H-muscimol binding)
Experimental: Membranes from recombinant Ltk cells expressing human GABA α1β3β2 receptors were suspended in an ice-cold solution of 100 mM KCl, 10 mM KH2PO4, adjusted to pH=7.4 with 1 M KOH. Tritiated muscimol (PerkinElmer, Wellesley, Mass.) at a concentration of 2 nM, and serial five-fold dilutions of test compounds at 10 μM, 2.0 μM, 400 nM, 80 nM, 16 nM, 3.2 nM, 0.64 nM and 0.13 nM were mixed in 96-well plates containing 200 μL of membrane suspension. Cold muscimol and compound P18 were used as negative and positive controls respectively. The assay mixture was incubated at 4° C. for 2 hours, then harvested on GF/C filter plates and washed with ice-cold 50 mM Tris-Ci buffer. The filter plates were dried and counted in a Wallac MicroBeta® Trilux detector (Model 1450-030; PerkinElmer, Wellesley, Mass.), and the data were downloaded and analyzed using Prism 3.0. The activity of compound P18 at 10 μM was used as reference for the test compounds, and it was expressed as increasing ^3H-muscimol binding by 100%, whereas cold muscimol at 2 μM antagonized ^3H-muscimol binding by 100%. The tested compound's activity at 10 μM was expressed as a percentage of compound P18's activity at 10 μM.
As a reference, the parent compound (the compound not substituted with a R^4 heteroaryl, such as pyrazole or 1,2,4-oxadiazole, as indicated below) is also shown with its Gamma Amino Butyric Acid (GABA) Receptor activity. […] As a result, the compounds of the present invention in which R^4 is a heteroaryl, such as pyrazole or 1,2,4-oxadiazole, have the unexpected benefits of minimizing off target activity at the GABA receptor.
Note: % GABA is defined as the GABA activity of the indicated compound expressed as a percentage of the activity of control compound P18. NA=data not available.

Row | SMILES | % GABA Example [%]
1 | CC(C)(C)C(=O)c1oc2nc(-c3ccc(-c4cn[nH]c4)cc3Cl)c(-c3ccc(Cl)cc3)cc2c1NC(=O)C(C)(C)O [Example 16, N-[5-(4-Chlorophenyl)-6-[2-chloro-4-(1H-pyrazol-4-yl)phenyl]-2-(2,2-dimethylpropanoyl)furo[2,3-b]pyridin-3-yl]-2-hydroxy-2-methylpropanamide] | 11
2 | CC(=O)Nc1c(C(=O)C(C)(C)O)oc2nc(-c3ccc(-c4cc[nH]n4)cc3Cl)c(-c3ccc(Cl)cc3)cc12 [Example 18, N-[5-(4-Chlorophenyl)-6-[2-chloro-4-(1H-pyrazol-3-yl)phenyl]-2-(2-hydroxy-2-methylpropanoyl)furo[2,3-b]pyridin-3-yl]acetamide] | 26
3 | CC(=O)Nc1c(C(=O)C(C)(C)C)oc2nc(-c3ccc(-c4cc[nH]n4)cc3Cl)c(-c3ccc(Cl)cc3)cc12 [Example 19, N-[5-(4-Chlorophenyl)-6-[2-chloro-4-(1H-pyrazol-3-yl)phenyl]-2-(2,2-dimethylpropanoyl)furo[2,3-b]pyridin-3-yl]acetamide] | 16
4 | CC(C)(C)C(=O)c1oc2nc(-c3ccc(-c4cc[nH]n4)cc3Cl)c(-c3ccc(Cl)cc3)cc2c1C(N)=O [Example 20, 5-(4-Chlorophenyl)-6-[2-chloro-4-(1H-pyrazol-3-yl)phenyl]-2-(2,2-dimethylpropanoyl)furo[2,3-b]pyridine-3-carboxamide] | 13
5 | CC(C)(O)C(=O)c1oc2nc(-c3ccc(-c4cc[nH]n4)cc3Cl)c(-c3ccc(Cl)cc3)cc2c1N [Example 21, 1-{3-Amino-5-(4-chlorophenyl)-6-[2-chloro-4-(1H-pyrazol-3-yl)phenyl]furo-[2,3-b]pyridin-2-yl}-2-hydroxy-2-methylpropan-1-one] | 27
6 | CC(C)C(=O)c1oc2nc(-c3ccc(-c4cc[nH]n4)cc3Cl)c(-c3ccc(Cl)cc3)cc2c1N [Example 22, 1-{3-Amino-5-(4-chlorophenyl)-6-[2-chloro-4-(1H-pyrazol-3-yl)phenyl]furo-[2,3-b]pyridin-2-yl}-2-methylpropan-1-one] | 18
7 | Cc1c(C(=O)C(C)(C)O)oc2nc(-c3ccc(-c4cc[nH]n4)cc3Cl)c(-c3ccc(Cl)cc3)cc12 [Example 23, 1-{5-(4-Chlorophenyl)-6-[2-chloro-4-(1H-pyrazol-3-yl)phenyl]-3-methylfuro[2,3-b]pyridin-2-yl}-2-hydroxy-2-methylpropan-1-one] | 24
8 | Cc1c(S(=O)(=O)C(C)(C)C)oc2nc(-c3ccc(-c4cc[nH]n4)cc3Cl)c(-c3ccc(Cl)cc3)cc12 [Example 24, 2-(Tert-butylsulfonyl)-5-(4-chlorophenyl)-6-[2-chloro-4-(1H-pyrazol-3-yl)phenyl]-3-methylfuro[2,3-b]pyridine] | 13
9 | CC(C)(C)C(=O)c1oc2nc(-c3ccc(-c4cc[nH]n4)cc3Cl)c(-c3ccc(Cl)cc3)cc2c1NC(=O)CO [Example 27, N-[5-(4-Chlorophenyl)-6-[2-chloro-4-(3H-pyrazol-5-yl)phenyl]-2-(2,2-dimethyl-propanoyl)furo[2,3-b]pyridin-3-yl]-2-hydroxyacetamide] | 29
10 | CC(C)C(=O)c1oc2nc(-c3ccc(-c4cc[nH]n4)cc3Cl)c(-c3ccc(Cl)cc3)cc2c1N1CCCC1=O [Example 28, 1-{5-(4-Chlorophenyl)-6-[2-chloro-4-(1H-pyrazol-3-yl)phenyl]-2-isobutyrylfuro[2,3-b]pyridin-3-yl}pyrrolidin-2-one] | 16
11 | CNC(=O)c1c(C(=O)C(C)(C)C)oc2nc(-c3ccc(-c4cc[nH]n4)cc3Cl)c(-c3ccc(Cl)cc3)cc12 [Example 29, 5-(4-Chlorophenyl)-6-[2-chloro-4-(1H-pyrazol-3-yl)phenyl]-2-(2,2-dimethylpropanoyl)-N-methylfuro[2,3-b]pyridine-3-carboxamide] | 20
12 | CC(=O)n1cc(-c2ccc(-c3nc4oc(C(=O)C(C)(C)O)c(N)c4cc3-c3ccc(Cl)cc3)c(Cl)c2)cn1 [Example 30, 1-[6-[4-(1-Acetyl-1H-pirazol-4-yl)-2-chlorophenyl]-3-amino-5-(4-chlorophenyl)furo[2,3-b]pyridin-2-yl]-2-hydroxy-2-methylpropan-1-one] | 19
13 | CC(C)(O)C(=O)c1oc2nc(-c3ccc(-c4cn[nH]c4)cc3Cl)c(-c3ccc(Cl)cc3)cc2c1NC(=O)CO [Example 31, N-[5-(4-Chlorophenyl)-6-[2-chloro-4-(1H-pyrazol-4-yl)phenyl]-2-(2-hydroxy-2-methylpropanoyl)-furo[2,3-b]pyridin-3-yl]-2-hydroxyacetamide] | 30

The next lines start with the values.

Row | % GABA Example [%] | SMILES
14 | 12 | CC(=O)Nc1c(C(=O)C(C)(C)C)oc2nc(-c3ccc(-c4cn[nH]c4)cc3Cl)c(-c3ccc(Cl)cc3)cc12 [Example 4, N-[5-(4-Chlorophenyl)-6-[2-chloro-4-(1H-pyrazol-4-yl)phenyl]-2-(2,2-dimethylpropanoyl)furo[2,3-b]pyridin-3-yl]acetamide]
15 | 11 | CCC(=O)c1oc2nc(-c3ccc(-c4cn[nH]c4)cc3Cl)c(-c3ccc(Cl)cc3)cc2c1NC(C)=O [Example 5, N-{5-(4-Chlorophenyl)-6-[2-chloro-4-(1H-pyrazol-4-yl)phenyl]-2-propionylfuro[2,3-b]pyridin-3-yl}acetamide]
16 | 3 | CC(C)C(=O)Nc1c(C(=O)C(C)(C)C)oc2nc(-c3ccc(-c4cn[nH]c4)cc3Cl)c(-c3ccc(Cl)cc3)cc12 [Example 6, N-[5-(4-Chlorophenyl)-6-[2-chloro-4-(1H-pyrazol-4-yl)phenyl]-2-(2,2-dimethylpropanoyl)furo[2,3-b]pyridin-3-yl]-2-methylpropanamide]
17 | 26 | CCC(=O)c1oc2nc(-c3ccc(-c4cn[nH]c4)cc3Cl)c(-c3ccc(Cl)cc3)cc2c1N [Example 8, 1-{3-Amino-5-(4-chlorophenyl)-6-[2-chloro-4-(1H-pyrazol-4-yl)phenyl]furo[2,3-b]pyridin-2-yl}propan-1-one]
18 | 30 | Cc1c(C(=O)C(C)(C)O)oc2nc(-c3ccc(-c4cn[nH]c4)cc3Cl)c(-c3ccc(Cl)cc3)cc12 [Example 9, 1-{5-(4-Chlorophenyl)-6-[2-chloro-4-(1H-pyrazol-4-yl)phenyl]-3-methylfuro[2,3-b]pyridin-2-yl}-2-hydroxy-2-methylpropan-1-one]
19 | 9 | Cc1c(C(=O)C(C)(C)C)oc2nc(-c3ccc(-c4cn[nH]c4)cc3Cl)c(-c3ccc(Cl)cc3)cc12 [Example 10, 1-{5-(4-Chlorophenyl)-6-[2-chloro-4-(1H-pyrazol-4-yl)phenyl]-3-methylfuro[2,3-b]pyridin-2-yl}-2,2-dimethylpropan-1-one]
20 | 51 | Cc1c(C(=O)CC(C)C)oc2nc(-c3ccc(-c4cn[nH]c4)cc3Cl)c(-c3ccc(Cl)cc3)cc12 [Example 12, 1-{5-(4-Chlorophenyl)-6-[2-chloro-4-(1H-pyrazol-4-yl)phenyl]-3-methylfuro[2,3-b]pyridin-2-yl}-3-methylbutan-1-one]
21 | 15 | CCC(=O)c1oc2nc(-c3ccc(-c4cn[nH]c4)cc3Cl)c(-c3ccc(Cl)cc3)cc2c1NC(=O)C(C)(C)O [Example 13, N-{5-(4-Chlorophenyl)-6-[2-chloro-4-(1H-pyrazol-4-yl)phenyl]-2-propionylfuro[2,3-b]pyridin-3-yl}-2-hydroxy-2-methylpropanamide]
22 | 13 | C[C@H](O)C(=O)Nc1c(C(=O)C(C)(C)C)oc2nc(-c3ccc(-c4cn[nH]c4)cc3Cl)c(-c3ccc(Cl)cc3)cc12 [Example 14, (2S)-N-[5-(4-Chlorophenyl)-6-[2-chloro-4-(1H-pyrazol-4-yl)phenyl]-2-(2,2-dimethylpropanoyl)furo[2,3-b]pyridin-3-yl]-2-hydroxypropanamide]
23 | 13 | CCC(=O)c1oc2nc(-c3ccc(-c4cn[nH]c4)cc3Cl)c(-c3ccc(Cl)cc3)cc2c1NC(=O)[C@H](C)O [Example 15, (2S)-N-{5-(4-Chlorophenyl)-6-[2-chloro-4-(1H-pyrazol-4-yl)phenyl]-2-propionylfuro[2,3-b]pyridin-3-yl}-2-hydroxypropanamide]
24 | 36 | CCC(=O)c1oc2nc(-c3ccc(-c4cn[nH]c4)cc3Cl)c(-c3ccc(Cl)cc3)cc2c1NC(=O)CO [Example 17, N-{5-(4-Chlorophenyl)-6-[2-chloro-4-(1H-pyrazol-4-yl)phenyl]-2-propionylfuro[2,3-b]pyridin-3-yl}-2-hydroxyacetamidetrifluoroacetate (salt)]
25 | 35 | Cc1c(C(=O)C(C)C)oc2nc(-c3ccc(-c4cc[nH]n4)cc3Cl)c(-c3ccc(Cl)cc3)cc12 [Example 25, 1-{5-(4-Chlorophenyl)-6-[2-chloro-4-(1H-pyrazol-3-yl)phenyl]-3-methylfuro[2,3-b]pyridin-2-yl}-2-methylpropan-1-one]
26 | 28 | CCC(=O)c1oc2nc(-c3ccc(-c4cc[nH]n4)cc3Cl)c(-c3ccc(Cl)cc3)cc2c1C [Example 26, 1-{5-(4-Chlorophenyl)-6-[2-chloro-4-(1H-pyrazol-3-yl)phenyl]-3-methylfuro[2,3-b]pyridin-2-yl}propan-1-one]
